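Tested at 5 concentrations; 48 h exposure; 96-well plates; endpoints linearly interpolated, else capped at highest concentration. At the GI50, growth is halved. TGI: total growth inhibition.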
Experiments:
Assay in all cases: inhibition of tumour cell growth, NCI panel, 48 h
CCRF-CEM leukemia = test system: CCRF-CEM leukemia
NCI/ADR-RES ovarian = test system: NCI/ADR-RES ovarian
LOX IMVI melanoma = test system: LOX IMVI melanoma
EKVX NSCLC = test system: EKVX NSCLC
786-0 renal = test system: 786-0 renal
A549 NSCLC = test system: A549 NSCLC
OVCAR-8 ovarian = test system: OVCAR-8 ovarian
MALME-3M melanoma = test system: MALME-3M melanoma
SF-539 CNS = test system: SF-539 CNS
SR leukemia = test system: SR leukemia
PC-3 prostate = test system: PC-3 prostate
SK-MEL-2 melanoma = test system: SK-MEL-2 melanoma
SNB-19 CNS = test system: SNB-19 CNS
HS 578T breast = test system: HS 578T breast
UO-31 renal = test system: UO-31 renal
NCI-H23 lung = test system: NCI-H23 lung
MCF7 breast = test system: MCF7 breast
SN12C renal = test system: SN12C renal
IGROV1 ovarian = test system: IGROV1 ovarian
HT29 colon = test system: HT29 colon
SK-MEL-28 melanoma = test system: SK-MEL-28 melanoma
TK-10 renal = test system: TK-10 renal
COLO 205 colon = test system: COLO 205 colon
UACC-257 melanoma = test system: UACC-257 melanoma
ACHN renal = test system: ACHN renal
RPMI-8226 leukemia = test system: RPMI-8226 leukemia
HCT-15 colon = test system: HCT-15 colon
OVCAR-4 ovarian = test system: OVCAR-4 ovarian
SNB-75 CNS = test system: SNB-75 CNS
HOP-62 NSCLC = test system: HOP-62 NSCLC
OVCAR-3 ovarian = test system: OVCAR-3 ovarian
NCI-H522 lung = test system: NCI-H522 lung
M14 melanoma = test system: M14 melanoma
SF-268 CNS = test system: SF-268 CNS
HCT-116 colon = test system: HCT-116 colon
MDA-MB-231 breast = test system: MDA-MB-231 breast
HOP-92 NSCLC = test system: HOP-92 NSCLC
A498 renal = test system: A498 renal
U251 CNS = test system: U251 CNS
K-562 leukemia = test system: K-562 leukemia
BT-549 breast = test system: BT-549 breast
HL-60(TB) leukemia = test system: HL-60(TB) leukemia
SF-295 CNS = test system: SF-295 CNS
SK-MEL-5 melanoma = test system: SK-MEL-5 melanoma
CAKI-1 renal = test system: CAKI-1 renal
NCI-H460 lung = test system: NCI-H460 lung
HCC-2998 colon = test system: HCC-2998 colon
KM12 colon = test system: KM12 colon
DU-145 prostate = test system: DU-145 prostate
UACC-62 melanoma = test system: UACC-62 melanoma
OVCAR-5 ovarian = test system: OVCAR-5 ovarian
SW-620 colon = test system: SW-620 colon
MOLT-4 leukemia = test system: MOLT-4 leukemia
NCI-H226 lung = test system: NCI-H226 lung

## CCCOC(=O)N[C@H]1CCc2cc(OC)c(OC)c(OC)c2-c2ccc(SC)c(=O)cc21
CCRF-CEM leukemia
  GI50: < 0.01 µM
  TGI: 19.7 µM
NCI/ADR-RES ovarian
  GI50: 0.0268 µM
  TGI: > 100 µM
LOX IMVI melanoma
  GI50: < 0.01 µM
  TGI: > 42.4 µM
EKVX NSCLC
  GI50: < 0.01 µM
  TGI: > 100 µM
786-0 renal
  GI50: < 0.01 µM
  TGI: > 100 µM
A549 NSCLC
  GI50: < 0.01 µM
  TGI: > 100 µM
OVCAR-8 ovarian
  GI50: < 0.01 µM
  TGI: > 100 µM
MALME-3M melanoma
  GI50: 0.0476 µM
  TGI: > 47.4 µM
SF-539 CNS
  GI50: < 0.01 µM
  TGI: 0.173 µM
SR leukemia
  GI50: < 0.01 µM
  TGI: > 56.3 µM
PC-3 prostate
  GI50: < 0.01 µM
  TGI: > 100 µM
SK-MEL-2 melanoma
  GI50: 0.463 µM
  TGI: 90.1 µM
SNB-19 CNS
  GI50: < 0.01 µM
  TGI: > 100 µM
HS 578T breast
  GI50: < 0.01 µM
  TGI: > 100 µM
UO-31 renal
  TGI: 42 µM
NCI-H23 lung
  GI50: < 0.01 µM
  TGI: > 100 µM
MCF7 breast
  GI50: < 0.01 µM
  TGI: > 100 µM
SN12C renal
  GI50: < 0.01 µM
  TGI: > 100 µM
IGROV1 ovarian
  GI50: < 0.01 µM
  TGI: > 100 µM
HT29 colon
  GI50: < 0.01 µM
  TGI: > 39.4 µM
SK-MEL-28 melanoma
  GI50: 10.1 µM
  TGI: > 68.1 µM
TK-10 renal
  GI50: 3.61 µM
  TGI: > 70.5 µM
COLO 205 colon
  GI50: < 0.01 µM
  TGI: 0.0108 µM
UACC-257 melanoma
  GI50: 12.1 µM
  TGI: > 56.3 µM
ACHN renal
  GI50: < 0.01 µM
  TGI: 15.7 µM
RPMI-8226 leukemia
  GI50: < 0.01 µM
  TGI: 8.22 µM
HCT-15 colon
  GI50: < 0.01 µM
  TGI: 12 µM
OVCAR-4 ovarian
  TGI: > 71.5 µM
SNB-75 CNS
  GI50: < 0.01 µM
  TGI: > 100 µM
HOP-62 NSCLC
  GI50: < 0.01 µM
  TGI: > 100 µM
OVCAR-3 ovarian
  GI50: < 0.01 µM
  TGI: < 0.0238 µM
NCI-H522 lung
  GI50: < 0.01 µM
  TGI: 7.25 µM
M14 melanoma
  GI50: < 0.01 µM
SF-268 CNS
  GI50: < 0.01 µM
  TGI: > 54.1 µM
HCT-116 colon
  GI50: < 0.01 µM
  TGI: 14.8 µM
MDA-MB-231 breast
  GI50: < 0.01 µM
  TGI: 25.5 µM
HOP-92 NSCLC
  GI50: < 0.0182 µM
  TGI: 16.1 µM
A498 renal
  GI50: < 0.01 µM
U251 CNS
  GI50: < 0.01 µM
  TGI: > 34.1 µM
K-562 leukemia
  GI50: < 0.01 µM
  TGI: 24.1 µM
BT-549 breast
  GI50: < 0.01 µM
  TGI: 19.6 µM
HL-60(TB) leukemia
  GI50: < 0.01 µM
  TGI: < 0.0129 µM
SF-295 CNS
  GI50: < 0.01 µM
  TGI: 6.77 µM
SK-MEL-5 melanoma
  GI50: < 0.01 µM
  TGI: 0.018 µM
CAKI-1 renal
  GI50: < 0.0201 µM
  TGI: 24.2 µM
NCI-H460 lung
  GI50: < 0.01 µM
  TGI: 11.7 µM
HCC-2998 colon
  GI50: < 0.01 µM
  TGI: 4.92 µM
KM12 colon
  GI50: < 0.01 µM
  TGI: > 38.6 µM
DU-145 prostate
  GI50: < 0.01 µM
  TGI: > 100 µM
UACC-62 melanoma
  GI50: < 0.01 µM
  TGI: > 61.2 µM
OVCAR-5 ovarian
  GI50: < 0.01 µM
  TGI: > 100 µM
SW-620 colon
  GI50: < 0.01 µM
  TGI: 21.5 µM
MOLT-4 leukemia
  GI50: < 0.01 µM
  TGI: 24.4 µM
NCI-H226 lung
  GI50: < 0.01 µM
  TGI: 10.6 µM

— PubChem BioAssay (NCI)
